According to ChEMBL document CHEMBL1201862, “PubChem BioAssay data set” (2004):
Active and inactive are the calls of the source.

Key:
[1] = molecular target: T1, Bcl-2-related protein A1 (Mus musculus, UniProt Q07440); test: Bfl-1 binding inhibitors, SAR follow-up, biochemical, fluorescence polarization (AID 1070)
T1 sequence (Q07440 whole entry): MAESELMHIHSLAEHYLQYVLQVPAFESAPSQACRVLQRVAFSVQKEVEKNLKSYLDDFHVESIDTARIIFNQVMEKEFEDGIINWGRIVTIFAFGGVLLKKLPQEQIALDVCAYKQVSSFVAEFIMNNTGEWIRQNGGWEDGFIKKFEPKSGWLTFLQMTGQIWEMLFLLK

[2] = molecular target: T1, Bcl-2-related protein A1; test: small-molecule antagonists of Bfl-1/BH3 interaction – biochemical, TR-FRET, mouse Bfl-1, confirmation (AID 621);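 note: TR-FRET binding of GST-Bfl-1 to FITC-labelled Bid peptide via terbium antibody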
[3] = molecular target: Glyceraldehyde-3-phosphate dehydrogenase (Homo sapiens, UniProt P04406)
[4] = molecular target: Serine/threonine-protein phosphatase (Homo sapiens, UniProt Q9BPW0); test: inhibition of protein phosphatase 5 activity – biochemical, fluorescence, dose response (AID 2395)
[5] = molecular target: Serine/threonine-protein phosphatase PP1-alpha catalytic subunit (Homo sapiens, UniProt P62136); test: inhibition of protein phosphatase 1 activity – biochemical, fluorescence, dose response (AID 2394)
[6] = molecular target: Cytochrome P450 3A4 (Homo sapiens, UniProt P08684); details: Potency;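 note: confirmatory qHTS run detecting inhibitors and substrates of CYP3A4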
[7] = molecular target: Cytochrome P450 2C19 (Homo sapiens, UniProt P33261); test: qHTS Assay for Inhibitors and Substrates of Cytochrome P450 2C19. [Related pubchem assays: 410 ]; type: ADME; details: read-out: Potency
[8] = molecular target: Dual specificity protein phosphatase 6 (Rattus norvegicus, UniProt Q64346); test: inhibition of rat DUSP6 enzyme activity – biochemical, in vitro, primary screen (AID 425)
[9] = molecular target: T2, Female germline-specific tumor suppressor gld-1 (Caenorhabditis elegans, UniProt Q17339); test: blockers of GLD-1/TGE RNA complex formation – biochemical, fluorescence polarization, C. elegans, dose response (AID 2802);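 note: fluorescence polarization of labeled TGE RNA bound by purified gld-1 protein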
T2 sequence (Q17339 whole entry): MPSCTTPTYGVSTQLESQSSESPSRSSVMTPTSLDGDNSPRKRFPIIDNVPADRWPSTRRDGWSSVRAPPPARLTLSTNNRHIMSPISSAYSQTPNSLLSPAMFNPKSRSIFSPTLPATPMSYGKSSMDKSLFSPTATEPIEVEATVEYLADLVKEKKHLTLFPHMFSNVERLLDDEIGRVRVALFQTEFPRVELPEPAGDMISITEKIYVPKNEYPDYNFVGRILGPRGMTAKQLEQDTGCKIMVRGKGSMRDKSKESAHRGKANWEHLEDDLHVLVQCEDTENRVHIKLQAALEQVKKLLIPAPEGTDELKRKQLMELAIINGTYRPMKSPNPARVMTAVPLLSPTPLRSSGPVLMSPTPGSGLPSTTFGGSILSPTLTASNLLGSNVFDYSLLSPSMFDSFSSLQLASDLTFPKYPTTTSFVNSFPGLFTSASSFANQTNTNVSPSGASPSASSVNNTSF

[10] = molecular target: T3, Polyadenylate-binding protein 1 (Homo sapiens, UniProt P11940); test: MLLE binding blockers, Cy5 peptide tracer – biochemical, fluorescence polarization, Cy5-PAM2 peptide, secondary, miRNA deadenylation inhibitor project, dose response (AID 602260); type: functional; details: read-out: IC50_Mean
[11] = molecular target: T4, Protein Rev (Human immunodeficiency virus type 1 group M subtype B (isolate HXB2)(HIV-1), UniProt P04618); test: blockers of HIV Rev/RRE RNA complex – biochemical, fluorescence polarization, HIV-1, dose response (AID 434976); design: species or system Human immunodeficiency virus 1
T4 sequence (P04618 whole entry): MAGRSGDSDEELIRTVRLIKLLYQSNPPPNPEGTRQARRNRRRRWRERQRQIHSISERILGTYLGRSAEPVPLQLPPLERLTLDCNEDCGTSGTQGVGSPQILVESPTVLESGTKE

[12] = molecular target: Long-chain-fatty-acid--AMP ligase FadD28 (Mycobacterium tuberculosis, UniProt P9WQ59); test: Fluorescence polarization aasay to screen for inhibitors that compete for the binding of FadD28 to a bisubstrate Measured in Biochemical System Using Plate Reader - 2147-01_Inhibitor_Dose_CherryPick_Activity.; type: functional, Mycobacterium tuberculosis H37Rv
[13] = molecular target: 14-3-3 protein gamma (Homo sapiens, UniProt P61981); test: modulators of 14-3-3 gamma client binding – dose response (AID 711); type: functional
[14] = molecular target: T3, Polyadenylate-binding protein 1; test: MLLE domain peptide-binding blockers, IC50 – biochemical, fluorescence polarization, FITC-PAM2 peptide, dose response (AID 602259); type: functional; details: read-out: IC50_Mean
[15] = molecular target: Aryl hydrocarbon receptor (Homo sapiens, UniProt P35869); test: Luminescence-based cell-based high throughput dose response assay for activators of the Aryl Hydrocarbon Receptor (AHR). [Related pubchem assays: 2796 (Primary screen (AHR activators in singlicate)), 2845 (Confirmation screen (AHR activators in triplicate)), 434939 (Counterscreen (PXR activators in triplicate)), 2804 (Summary (AHR activators))]; type: ADME
[16] = molecular target: T5, Protein RecA (Mycobacterium tuberculosis, UniProt P9WHJ3); test: Fluorescence Cell-Free Homogeneous Dose Retest to Identify Inhibitors of RecA-Intein Splicing Activity. [Related pubchem assays (depositor defined):AID2097, AID2223, AID489010, AID492950]; type: functional
T5 sequence (P9WHJ3 whole entry): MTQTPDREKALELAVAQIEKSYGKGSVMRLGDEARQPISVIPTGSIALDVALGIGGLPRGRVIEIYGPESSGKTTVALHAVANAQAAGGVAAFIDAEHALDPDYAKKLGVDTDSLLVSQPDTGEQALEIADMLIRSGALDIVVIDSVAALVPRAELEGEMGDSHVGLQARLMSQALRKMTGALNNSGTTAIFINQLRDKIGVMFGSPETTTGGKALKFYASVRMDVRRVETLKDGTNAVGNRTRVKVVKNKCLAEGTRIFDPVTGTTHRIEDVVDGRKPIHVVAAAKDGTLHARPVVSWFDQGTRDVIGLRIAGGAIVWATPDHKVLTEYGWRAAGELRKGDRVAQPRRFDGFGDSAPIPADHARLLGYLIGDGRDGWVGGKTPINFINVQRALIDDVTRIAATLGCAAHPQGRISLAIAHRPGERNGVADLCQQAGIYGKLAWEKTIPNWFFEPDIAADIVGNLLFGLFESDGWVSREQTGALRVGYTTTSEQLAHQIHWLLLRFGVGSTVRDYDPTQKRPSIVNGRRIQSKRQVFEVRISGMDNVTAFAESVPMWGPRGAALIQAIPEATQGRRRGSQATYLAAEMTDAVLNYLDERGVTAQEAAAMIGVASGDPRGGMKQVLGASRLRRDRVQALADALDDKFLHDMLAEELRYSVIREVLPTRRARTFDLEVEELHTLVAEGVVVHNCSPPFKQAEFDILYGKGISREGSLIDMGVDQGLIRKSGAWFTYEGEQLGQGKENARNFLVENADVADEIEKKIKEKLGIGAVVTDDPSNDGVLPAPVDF

[17] = Luminescence Cell-Based Dose Response HTS to Identify Inhibitors of 5'UTR Stem-Loop Driven Prion Protein mRNA Translation in H4 Neuroglioblastoma Cells. [Related pubchem assays: 1827 (Project Summary), 1813 (Primary HTS)]; type: functional
[18] = viability loss in HeLa cells – cytotoxicity control for MgcRacGAP inhibitor project, dose response (AID 624300); type: functional
[19] = molecular target: Luciferin 4-monooxygenase (Photinus pyralis, UniProt P08659); test: inhibition of purified Photinus pyralis luciferase – biochemical, luminescence, dose response (AID 1891)
[20] = molecular target: T6, Rac GTPase-activating protein 1 (Homo sapiens, UniProt Q9H0H5); test: blockers of MgcRacGAP-driven Rac1 GTP hydrolysis – biochemical, ADP Hunter fluorescence, primary and confirmatory, confirmation (AID 624330); type: functional
T6 sequence (Q9H0H5 whole entry): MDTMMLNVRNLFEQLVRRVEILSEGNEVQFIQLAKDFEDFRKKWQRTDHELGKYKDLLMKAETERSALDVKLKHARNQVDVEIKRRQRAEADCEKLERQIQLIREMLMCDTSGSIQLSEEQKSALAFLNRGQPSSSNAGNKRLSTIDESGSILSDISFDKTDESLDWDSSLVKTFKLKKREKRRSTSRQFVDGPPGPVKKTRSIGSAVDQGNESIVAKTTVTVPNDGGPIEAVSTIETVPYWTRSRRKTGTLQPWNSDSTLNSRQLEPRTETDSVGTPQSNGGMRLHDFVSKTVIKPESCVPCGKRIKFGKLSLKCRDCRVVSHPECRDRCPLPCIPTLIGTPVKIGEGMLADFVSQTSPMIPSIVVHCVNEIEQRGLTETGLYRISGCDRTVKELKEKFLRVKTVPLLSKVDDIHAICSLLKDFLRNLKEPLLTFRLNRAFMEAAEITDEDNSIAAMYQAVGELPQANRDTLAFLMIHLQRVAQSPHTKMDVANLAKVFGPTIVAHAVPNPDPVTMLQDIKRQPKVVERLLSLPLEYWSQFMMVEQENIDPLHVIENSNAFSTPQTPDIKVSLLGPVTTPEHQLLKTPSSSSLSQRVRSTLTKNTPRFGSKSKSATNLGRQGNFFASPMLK

[21] = Luminescent dose response cell-based high throughput screening assay for inhibitors of the Janus kinase 2 mutant JAK2V617F. [Related pubchem assays: 1446 (Primary screen.), 1521 (Confirmation assay.), 1486 (Counter screen.)]; type: functional
[22] = molecular target: T7, Replicative DNA helicase DnaB (Mycobacterium tuberculosis, UniProt P9WMR3); test: DnaB intein splicing inhibitors, dose response, biochemical, cell-free fluorescence (AID 449749); type: functional
T7 sequence (P9WMR3 whole entry): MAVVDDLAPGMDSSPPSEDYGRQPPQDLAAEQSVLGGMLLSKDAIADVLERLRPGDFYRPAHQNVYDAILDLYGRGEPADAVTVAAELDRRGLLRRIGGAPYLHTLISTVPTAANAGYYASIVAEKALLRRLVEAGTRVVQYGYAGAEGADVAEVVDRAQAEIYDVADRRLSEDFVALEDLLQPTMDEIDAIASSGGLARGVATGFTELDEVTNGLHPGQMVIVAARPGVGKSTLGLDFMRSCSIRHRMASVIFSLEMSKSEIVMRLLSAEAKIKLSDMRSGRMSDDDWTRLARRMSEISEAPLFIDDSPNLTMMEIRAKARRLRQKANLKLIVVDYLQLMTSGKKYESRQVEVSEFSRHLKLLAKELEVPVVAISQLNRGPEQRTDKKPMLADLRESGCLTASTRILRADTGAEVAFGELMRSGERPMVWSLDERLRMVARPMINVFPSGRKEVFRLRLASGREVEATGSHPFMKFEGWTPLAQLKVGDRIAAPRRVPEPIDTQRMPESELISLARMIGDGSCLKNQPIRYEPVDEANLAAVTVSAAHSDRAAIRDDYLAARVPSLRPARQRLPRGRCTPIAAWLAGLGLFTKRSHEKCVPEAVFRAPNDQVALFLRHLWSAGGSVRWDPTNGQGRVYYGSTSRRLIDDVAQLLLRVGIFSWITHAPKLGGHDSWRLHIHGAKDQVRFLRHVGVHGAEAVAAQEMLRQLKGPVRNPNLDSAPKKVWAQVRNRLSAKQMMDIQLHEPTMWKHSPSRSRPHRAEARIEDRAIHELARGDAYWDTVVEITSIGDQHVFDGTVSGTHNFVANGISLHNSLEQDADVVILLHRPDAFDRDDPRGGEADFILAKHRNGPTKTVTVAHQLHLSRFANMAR

[23] = Luminescence Cell-Based Dose Confirmation HTS to Identify Inhibitors of Platelet Dense Granule Release. [Related pubchem assays: 1663 (Primary HTS), 1678 (Summary of Project)]; type: functional
[24] = test system: INS1; test: INS-1E survival protection against cytokine death – cell-based, luminescence, retest, dose response (AID 449756); type: functional; details: Rattus norvegicus;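 note: cell death triggered by IL-1 beta plus TNF-alpha plus IFN-gamma mixture; protective hits raise ATP signal compared with cytokine alone wells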
[25] = molecular target: T8, Calpain-2 catalytic subunit (Sus scrofa, UniProt P43367); test: m-calpain protease blockers, concentration series – biochemical, fluorogenic peptide substrate, dose response (AID 1420); type: functional
T8 sequence (P43367 whole entry): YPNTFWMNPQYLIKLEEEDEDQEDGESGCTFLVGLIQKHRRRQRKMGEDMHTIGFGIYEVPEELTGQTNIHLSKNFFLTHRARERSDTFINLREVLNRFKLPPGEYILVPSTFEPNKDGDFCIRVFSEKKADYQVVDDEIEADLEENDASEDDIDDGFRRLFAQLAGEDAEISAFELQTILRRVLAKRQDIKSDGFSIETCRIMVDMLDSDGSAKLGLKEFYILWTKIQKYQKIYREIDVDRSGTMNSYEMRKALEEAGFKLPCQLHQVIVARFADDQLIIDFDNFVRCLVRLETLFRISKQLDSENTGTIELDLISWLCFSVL

[26] = test system: Danio rerio; test: In Vivo Angiogenesis Dose-Response Confirmation. [Related pubchem assays: 732 (Assay preceding this confirmatory assay.)]; type: functional, organism-based
[27] = molecular target: Voltage-gated inwardly rectifying potassium channel KCNH2 (Homo sapiens, UniProt Q12809); details: Potency;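 note: confirmatory quantitative high-throughput screen measuring inhibition of hERG channel activity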
Voltage-gated inwardly rectifying potassium channel KCNH2, sequence (Q12809 whole entry): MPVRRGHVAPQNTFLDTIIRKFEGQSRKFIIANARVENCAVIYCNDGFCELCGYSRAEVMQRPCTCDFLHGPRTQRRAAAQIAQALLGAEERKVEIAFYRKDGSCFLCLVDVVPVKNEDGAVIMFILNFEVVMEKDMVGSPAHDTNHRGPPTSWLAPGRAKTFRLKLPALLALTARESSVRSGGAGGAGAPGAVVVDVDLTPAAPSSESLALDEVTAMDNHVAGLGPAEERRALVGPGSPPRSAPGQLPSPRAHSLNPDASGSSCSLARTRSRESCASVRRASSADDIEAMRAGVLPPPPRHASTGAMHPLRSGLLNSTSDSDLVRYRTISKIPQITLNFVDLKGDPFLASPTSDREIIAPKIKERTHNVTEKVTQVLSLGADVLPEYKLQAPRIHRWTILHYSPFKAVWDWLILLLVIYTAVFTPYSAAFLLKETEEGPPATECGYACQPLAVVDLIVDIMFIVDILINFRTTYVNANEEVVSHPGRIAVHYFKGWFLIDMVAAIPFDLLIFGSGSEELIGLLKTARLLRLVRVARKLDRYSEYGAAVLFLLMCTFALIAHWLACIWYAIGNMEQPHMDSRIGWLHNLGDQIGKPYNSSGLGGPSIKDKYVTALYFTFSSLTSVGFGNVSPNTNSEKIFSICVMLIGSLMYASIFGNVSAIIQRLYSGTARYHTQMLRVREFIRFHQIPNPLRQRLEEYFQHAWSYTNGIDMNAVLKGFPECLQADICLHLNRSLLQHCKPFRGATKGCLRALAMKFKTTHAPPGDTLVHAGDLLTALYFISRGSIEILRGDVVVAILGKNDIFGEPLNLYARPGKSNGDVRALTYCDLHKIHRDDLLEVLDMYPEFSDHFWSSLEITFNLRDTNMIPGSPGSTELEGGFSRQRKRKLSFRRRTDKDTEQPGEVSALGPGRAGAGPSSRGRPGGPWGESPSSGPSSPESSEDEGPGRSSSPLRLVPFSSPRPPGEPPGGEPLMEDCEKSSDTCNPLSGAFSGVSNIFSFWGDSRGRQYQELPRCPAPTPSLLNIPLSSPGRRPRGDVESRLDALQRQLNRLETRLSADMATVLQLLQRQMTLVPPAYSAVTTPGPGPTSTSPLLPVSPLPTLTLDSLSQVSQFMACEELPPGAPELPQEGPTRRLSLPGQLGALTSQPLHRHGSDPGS

T3 sequence (P11940 whole entry): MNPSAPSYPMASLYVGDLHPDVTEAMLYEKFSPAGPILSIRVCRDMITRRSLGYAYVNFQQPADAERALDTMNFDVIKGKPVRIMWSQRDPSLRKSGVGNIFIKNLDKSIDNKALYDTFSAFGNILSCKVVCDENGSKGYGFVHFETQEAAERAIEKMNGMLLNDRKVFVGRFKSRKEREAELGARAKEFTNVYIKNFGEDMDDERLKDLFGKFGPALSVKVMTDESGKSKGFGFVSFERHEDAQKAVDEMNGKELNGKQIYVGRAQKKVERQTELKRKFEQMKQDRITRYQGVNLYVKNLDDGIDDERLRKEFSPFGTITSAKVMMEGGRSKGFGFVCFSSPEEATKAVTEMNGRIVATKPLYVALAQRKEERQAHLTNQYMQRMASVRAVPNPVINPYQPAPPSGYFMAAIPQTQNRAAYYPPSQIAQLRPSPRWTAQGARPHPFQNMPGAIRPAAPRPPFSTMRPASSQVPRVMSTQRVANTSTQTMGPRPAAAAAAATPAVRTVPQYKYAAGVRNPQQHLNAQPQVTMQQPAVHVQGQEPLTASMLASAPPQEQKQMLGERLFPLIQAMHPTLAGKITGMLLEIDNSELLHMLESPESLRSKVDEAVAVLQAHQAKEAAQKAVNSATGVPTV
Dual specificity protein phosphatase 6, sequence (Q64346 whole entry): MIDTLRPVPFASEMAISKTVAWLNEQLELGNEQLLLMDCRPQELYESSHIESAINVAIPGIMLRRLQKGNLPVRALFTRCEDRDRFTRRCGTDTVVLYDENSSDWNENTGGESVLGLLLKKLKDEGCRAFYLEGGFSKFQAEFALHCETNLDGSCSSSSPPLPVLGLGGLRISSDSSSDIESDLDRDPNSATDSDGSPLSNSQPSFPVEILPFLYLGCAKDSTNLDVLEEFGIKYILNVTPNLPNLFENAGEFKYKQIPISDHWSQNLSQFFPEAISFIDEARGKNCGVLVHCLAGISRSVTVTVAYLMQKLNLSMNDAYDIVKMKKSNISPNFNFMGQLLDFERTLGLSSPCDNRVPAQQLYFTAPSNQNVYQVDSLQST
Serine/threonine-protein phosphatase, sequence (Q9BPW0 whole entry): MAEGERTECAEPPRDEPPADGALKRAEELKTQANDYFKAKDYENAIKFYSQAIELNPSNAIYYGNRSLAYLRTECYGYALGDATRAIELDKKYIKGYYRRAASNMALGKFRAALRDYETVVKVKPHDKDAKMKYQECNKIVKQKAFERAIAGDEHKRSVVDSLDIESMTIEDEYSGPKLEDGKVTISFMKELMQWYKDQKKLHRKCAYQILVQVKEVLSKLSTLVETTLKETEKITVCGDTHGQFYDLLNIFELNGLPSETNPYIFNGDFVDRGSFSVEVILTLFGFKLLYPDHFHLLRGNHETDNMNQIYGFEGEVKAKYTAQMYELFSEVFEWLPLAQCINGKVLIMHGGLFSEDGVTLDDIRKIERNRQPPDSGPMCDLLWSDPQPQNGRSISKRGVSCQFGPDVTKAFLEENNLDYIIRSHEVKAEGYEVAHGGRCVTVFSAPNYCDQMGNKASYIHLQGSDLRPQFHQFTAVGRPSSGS
Luciferin 4-monooxygenase, sequence (P08659 whole entry): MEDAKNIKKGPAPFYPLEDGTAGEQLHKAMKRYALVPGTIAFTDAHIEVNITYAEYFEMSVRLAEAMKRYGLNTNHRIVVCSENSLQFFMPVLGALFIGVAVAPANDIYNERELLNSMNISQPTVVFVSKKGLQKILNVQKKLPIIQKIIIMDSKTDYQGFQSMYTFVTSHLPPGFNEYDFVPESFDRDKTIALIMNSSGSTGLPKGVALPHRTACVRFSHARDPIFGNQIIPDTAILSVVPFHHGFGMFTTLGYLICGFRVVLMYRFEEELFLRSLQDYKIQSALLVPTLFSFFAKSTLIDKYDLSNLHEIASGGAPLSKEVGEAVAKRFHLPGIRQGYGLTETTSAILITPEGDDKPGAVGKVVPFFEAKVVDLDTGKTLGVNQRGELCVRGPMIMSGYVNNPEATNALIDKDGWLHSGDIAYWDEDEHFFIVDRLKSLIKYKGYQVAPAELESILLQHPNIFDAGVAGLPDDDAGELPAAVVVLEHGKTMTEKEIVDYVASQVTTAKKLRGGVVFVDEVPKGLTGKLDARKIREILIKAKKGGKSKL
Glyceraldehyde-3-phosphate dehydrogenase, sequence (P04406 whole entry): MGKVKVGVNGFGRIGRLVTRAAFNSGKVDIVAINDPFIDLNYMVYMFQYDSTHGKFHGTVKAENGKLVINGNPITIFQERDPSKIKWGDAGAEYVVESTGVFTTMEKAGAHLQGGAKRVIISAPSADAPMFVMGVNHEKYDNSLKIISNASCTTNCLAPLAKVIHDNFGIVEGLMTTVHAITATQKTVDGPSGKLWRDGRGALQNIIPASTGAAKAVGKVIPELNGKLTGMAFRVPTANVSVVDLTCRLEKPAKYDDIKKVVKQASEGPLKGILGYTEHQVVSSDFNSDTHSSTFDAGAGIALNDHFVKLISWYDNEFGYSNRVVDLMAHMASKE
Cytochrome P450 3A4, sequence (P08684 whole entry): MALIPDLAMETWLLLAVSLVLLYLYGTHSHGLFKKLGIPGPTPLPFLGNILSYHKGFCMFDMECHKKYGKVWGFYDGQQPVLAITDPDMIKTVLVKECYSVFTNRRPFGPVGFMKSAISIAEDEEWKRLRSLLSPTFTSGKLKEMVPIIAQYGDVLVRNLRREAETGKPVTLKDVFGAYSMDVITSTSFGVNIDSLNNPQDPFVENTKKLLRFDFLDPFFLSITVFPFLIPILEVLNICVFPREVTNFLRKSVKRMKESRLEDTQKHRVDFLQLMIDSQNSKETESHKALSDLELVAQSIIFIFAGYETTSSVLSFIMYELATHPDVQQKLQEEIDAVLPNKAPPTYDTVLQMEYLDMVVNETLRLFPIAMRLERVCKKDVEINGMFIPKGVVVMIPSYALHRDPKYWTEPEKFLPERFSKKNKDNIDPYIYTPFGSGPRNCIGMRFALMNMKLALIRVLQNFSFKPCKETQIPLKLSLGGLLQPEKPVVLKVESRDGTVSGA
Serine/threonine-protein phosphatase PP1-alpha catalytic subunit, sequence (P62136 whole entry): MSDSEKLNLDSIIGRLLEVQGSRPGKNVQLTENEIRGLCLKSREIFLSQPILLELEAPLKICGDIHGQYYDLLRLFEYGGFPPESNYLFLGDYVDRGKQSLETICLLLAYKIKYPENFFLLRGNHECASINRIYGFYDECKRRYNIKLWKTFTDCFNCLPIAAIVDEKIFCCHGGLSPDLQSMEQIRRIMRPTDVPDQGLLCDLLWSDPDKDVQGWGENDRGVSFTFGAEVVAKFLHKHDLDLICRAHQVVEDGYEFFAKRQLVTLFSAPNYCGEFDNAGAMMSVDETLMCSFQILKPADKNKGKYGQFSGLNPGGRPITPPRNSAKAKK
14-3-3 protein gamma, sequence (P61981 whole entry, the tested form may be a part): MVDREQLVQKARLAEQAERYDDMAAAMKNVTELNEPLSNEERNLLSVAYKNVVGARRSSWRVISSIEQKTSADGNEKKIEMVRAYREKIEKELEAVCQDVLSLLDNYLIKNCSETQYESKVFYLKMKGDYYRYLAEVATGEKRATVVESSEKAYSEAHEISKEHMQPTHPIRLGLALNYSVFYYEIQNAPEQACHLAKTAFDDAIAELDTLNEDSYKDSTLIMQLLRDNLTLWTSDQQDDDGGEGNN

O=C1C(Cl)=C(N2CCN(c3ccccc3)CC2)C(=O)N1c1ccc(Cl)c(Cl)c1
IC50 [1]: 4.95 µM (active) | IC50 [2]: 4.13 µM (active) | IC50 [3]: > 100 µM (not active)

COC(=O)CCC(=O)OC1(C)C(=O)C=C2C=C(C3CC3)N(CC3CC3)C=C2C1=O (configuration not stated)
IC50 [4]: 17 µM (not active) | IC50 [5]: 63.6 µM (not active)

COC(=O)NC(c1ccccc1)C(C(=O)OC)C(=O)OC (configuration not stated)
AC50 [6]: 3.16 µM (inconclusive) | AC50 [7]: 5.01 µM (inconclusive)

CCOC(=O)c1cc2sccc2n1Cc1ccccc1
IC50 [8]: > 100 µM (not active)

CCn1c(CSc2nccn2C)nc2cc(C(=O)O)ccc21
IC50 [9]: 14.9 µM (inactive) | IC50 [10]: 62.1 µM (inactive) | IC50 [11]: 19.7 µM (not active) | AC50 [12]: > 100 µM (inactive) | IC50 [13]: > 50 µM (not active) | IC50 [14]: 36.7 µM (inactive)

COCC(=O)Nc1nnc(-c2cccs2)s1
EC50 [15]: 6.26 µM (active)

O=C1/C(=N\c2ccc(O)cc2)C=C(O)c2ccccc21
EC50 [16]: 3.57 µM (active) | EC50 [17]: > 120 µM (not active) | CC50 [18]: 100 µM (active) | EC50 [19]: 3.81 µM (active) | IC50 [20]: 23.7 µM (active) | IC50 [21]: 2.02 µM (active) | AC50 [22]: 3.88 µM (active) | EC50 [23]: 4.34 µM (active) | AC50 [24]: 6.8 µM (active) | IC50 [25]: 5.1 µM (not active)

CN(C)c1ccc(/C=C2\C(=O)Nc3ccccc32)cc1
IC50 [26]: > 100 µM (not active) | AC50 [27]: 14.1 µM (inconclusive)
